Tested on: HCV replicon
Experiment: HCV replicon replication assay (NPT ELISA) in Huh-7 replicon-containing cells
Type: cell-based
Conditions: Hepatitis C virus, 72 h; HCV replicon in Huh-7 cells, three days incubation; read-out: EC50
Outline: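 Replication was scored by capture ELISA of neomycin phosphotransferase, whose level tracks replicon replication, after graded compound treatment. The cells were Huh-7 harbouring an HCV-IRES/neo/EMCV-IRES/NS3–NS5B/3′-NTR replicon, plated at 6000-7500 cells/well and dosed 24 h later at 60-70% confluence; interferon alpha was the positive control.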

Row | SMILES | EC50
1 | C=C[C@@H]1C[C@]1(NC(=O)[C@@H]1C[C@@H](Oc2cc(-c3ccccc3)nc3cc(OC)ccc23)CN1C(=O)[C@@H](CC(=O)N1CCCC2CCCCC21)C(C)(C)C)C(=O)NS(=O)(=O)C1CC1 (stereo partly drawn) [Compound 183, (2S,4R)-1-((2S)-2-tert-butyl-4-(octa-hydroquinolin-1(2H)-yl)-4-oxobutanoyl)-N-((1R,2S)-1-(cyclopropylsulfonyl-carbamoyl)-2-vinylcyclopropyl)-4-(7-methoxy-2-phenylquinolin-4-yloxy)pyrrolidine-2-carboxamide] | < 1000 nM
2 | C=C[C@@H]1C[C@]1(NC(=O)[C@@H]1C[C@@H](Oc2cc(-c3ccccc3)nc3cc(OC)ccc23)CN1C(=O)[C@@H](CC(=O)N1CC[C@@H](NC(=O)OC(C)(C)C)C1)C(C)(C)C)C(=O)NS(=O)(=O)C1CC1 [Compound 184, tert-butyl (R)-1-((S)-3-((2S,4R)-2-((1R,2S)-1-(cyclo-propylsulfonyl-carbamoyl)-2-vinyl-cyclopropyl-carbamoyl)-4-(7-methoxy-2-phenylquinolin-4-yloxy)pyrrolidine-1-carbonyl)-4,4-dime-thylpentanoyl)pyr-rolidin-3-ylcarbamate] | < 1000 nM
3 | C=CC1C[C@]1(NC(=O)[C@@H]1C[C@@H](Oc2cc(-c3ccccc3)nc3cc(OC)ccc23)CN1C(=O)[C@@H](CC(=O)N1CC(C)CC(C)C1)C(C)(C)C)C(=O)NS(=O)(=O)C1CC1 (stereo partly shown) [Compound 185] | < 1000 nM
4 | C=C[C@@H]1C[C@]1(NC(=O)[C@@H]1C[C@@H](NC(=O)n2c3ccccc3c3ccccc32)CN1C(=O)[C@@H](CC(=O)N1CCC(F)(F)C1)C(C)(C)C)C(=O)NS(=O)(=O)C1CC1 [Compound 186, N-((3R,5S)-1-((S)-2-tert-butyl-4-(3,3-difluoropyrrolidin-1-yl)-4-oxobutanoyl)-5-((1R,2S)-1-(cyclopropylsulfonyl-carbamoyl)-2-vinyl-cyclopropyl-carbamoyl)pyrrolidin-3-yl)-9H-carbazole-9-carboxamide] | < 1000 nM
5 | C=C[C@@H]1C[C@]1(NC(=O)[C@@H]1C[C@@H](NC(=O)n2c3ccccc3c3ccccc32)CN1C(=O)[C@@H](CC(=O)N1CCC(F)(F)CC1)C(C)(C)C)C(=O)NS(=O)(=O)C1CC1 [Compound 187, N-((3R,5S)-1-((S)-2-tert-butyl-4-(4,4-difluoropiperidin-1-yl)-4-oxobutanoyl)-5-((1R,2S)-1-(cyclopropylsulfonyl-carbamoyl)-2-vinyl-cyclopropyl-carbamoyl)pyrrolidin-3-yl)-9H-carbazole-9-carboxamide] | < 1000 nM
6 | C=C[C@@H]1C[C@]1(NC(=O)[C@@H]1C[C@@H](NC(=O)n2c3ccccc3c3ccccc32)CN1C(=O)[C@@H](CC(=O)N1CCCC(F)C1)C(C)(C)C)C(=O)NS(=O)(=O)C1CC1 (stereo partly drawn) [Compound 188, N-((3R,5S)-1-((2S)-2-tert-butyl-4-(3-fluoropiperidin-1-yl)-4-oxobutanoyl)-5-((1R,2S)-1-(cyclopropylsulfonyl-carbamoyl)-2-vinyl-cyclopropyl-carbamoyl)pyrrolidin-3-yl)-9H-carbazole-9-carboxamide] | < 1000 nM
7 | C=C[C@@H]1C[C@]1(NC(=O)[C@@H]1C[C@@H](NC(=O)n2c3ccccc3c3ccccc32)CN1C(=O)[C@@H](CC(=O)N1CCC(F)CC1)C(C)(C)C)C(=O)NS(=O)(=O)C1CC1 [Compound 189, N-((3R,5S)-1-((S)-2-tert-butyl-4-(4-fluoropiperidin-1-yl)-4-oxobutanoyl)-5-((1R,2S)-1-(cyclo-propylsulfonyl-carbamoyl)-2-vinylcyclopropyl-carbamoyl)pyrrolidin-3-yl)-9H-carbazole-9-carboxamide] | < 1000 nM
8 | C=C[C@@H]1C[C@]1(NC(=O)[C@@H]1C[C@@H](NC(=O)n2c3ccccc3c3ccccc32)CN1C(=O)[C@@H](CC(=O)N1CCC(C(F)(F)F)CC1)C(C)(C)C)C(=O)NS(=O)(=O)C1CC1 [Compound 190, N-((3R,5S)-1-((S)-2-tert-butyl-4-oxo-4-(4-(trifluoromethyl)piper-idin-1-yl)butanoyl)-5-((1R,2S)-1-(cyclopropylsulfonyl-carbamoyl)-2-vinylcyclopropyl-carbamoyl)pyrrolidin-3-yl)-9H-carbazole-9-carboxamide] | < 1000 nM
9 | C=C[C@@H]1C[C@]1(NC(=O)[C@@H]1C[C@@H](N(Cc2ccccn2)C(=O)n2c3ccccc3c3ccccc32)CN1C(=O)[C@@H](CC(=O)N1CCCCC1)C(C)(C)C)C(=O)NS(=O)(=O)C1CC1 [Compound 191, N-((3R,5S)-1-((S)-2-tert-butyl-4-oxo-4-(piperidin-1-yl)butanoyl)-5-((1R)-1-(cyclopropylsulfonyl-carbamoyl)-2-vinyl-cyclopropyl-carbamoyl)pyrrolidin-3-yl)-N-(pyridin-2-ylmethyl)-9H-carbazole-9-carboxamide] | < 1000 nM
10 | C=C[C@@H]1C[C@]1(NC(=O)[C@@H]1C[C@@H](N(Cc2ccccn2)C(=O)n2c3ccccc3c3ccccc32)CN1C(=O)[C@@H](CC(=O)N1CCCC(F)(F)C1)C(C)(C)C)C(=O)NS(=O)(=O)C1CC1 [Compound 192, N-((3R,5S)-1-((S)-2-tert-butyl-4-(3,3-difluoropiperidin-1-yl)-4-oxobutanoyl)-5-((1R)-1-(cyclopropylsulfonyl-carbamoyl)-2-vinylcyclopropyl-carbamoyl)pyrrolidin-3-yl)-N-(pyridin-2-ylmethyl)-9H-carbazole-9-carboxamide] | < 1000 nM
11 | C=C[C@@H]1C[C@]1(NC(=O)[C@@H]1C[C@@H](N(Cc2ccccn2)C(=O)n2c3ccccc3c3ccccc32)CN1C(=O)[C@@H](CC(=O)N1CCC(F)(F)C1)C(C)(C)C)C(=O)NS(=O)(=O)C1CC1 [Compound 193, N-((3R,5S)-1-((S)-2-tert-butyl-4-(3,3-difluoropyrrolidin-1-yl)-4-oxobutanoyl)-5-((1R)-1-(cyclopropylsulfonyl-carbamoyl)-2-vinylcyclopropyl-carbamoyl)pyrrolidin-3-yl)-N-(pyridin-2-ylmethyl)-9H-carbazole-9-carboxamide] | < 1000 nM
12 | C=C[C@@H]1C[C@]1(NC(=O)[C@@H]1C[C@@H](Oc2cc(-c3ccccn3)nc3c(Cl)c(OC)ccc23)CN1C(=O)[C@@H](CC(=O)N1CCC(F)(F)CC1)C(C)(C)C)C(=O)NS(=O)(=O)C1CC1 [Compound 194, (2S,4R)-1-((S)-2-tert-butyl-4-(4,4-difluoropiperidin-1-yl)-4-oxobutanoyl)-4-(8-chloro-7-methoxy-2-(pyridin-2-yl)quinolin-4-yloxy)-N-((1R)-1-(cyclopropyl-sulfonylcarbamoyl)-2-vinyl-cyclopropyl)pyr-rolidine-2-carboxamide] | < 1000 nM
13 | C=C[C@@H]1C[C@]1(NC(=O)[C@@H]1C[C@@H](Oc2cc(-c3ccccc3)nc3cc(OC)ccc23)CN1C(=O)[C@@H](CC(=O)N1CCN(S(=O)(=O)CC)CC1)C(C)(C)C)C(=O)NS(=O)(=O)C1CC1 [Compound 195, (2S,4R)-1-((S)-2-tert-butyl-4-(4-(ethylsulfonyl)piper-azin-1-yl)-4-oxobutanoyl)-N-((1R)-1-(cyclopropylsulfonyl-carbamoyl)-2-vinylcyclopropyl)-4-(7-methoxy-2-phenylquinolin-4-yloxy)pyrrolidine-2-carboxamide] | < 1000 nM
